These are literature values, as cited in JPH06128153A, “トラニラスト軟膏組成物およびその製造方法” (Kissei Pharmaceutical Co Ltd, priority 1992, dated 1994).

Where two headings read alike, the source gives them in different places.

The conditions of the series: stated as known, no test described.

Turning to `COc1ccc(/C=C/C(=O)Nc2ccccc2C(=O)O)cc1OC` [トラニラスト], the solubility in water result was “極めて難溶”.
Take `COc1ccc(/C=C/C(=O)Nc2ccccc2C(=O)O)cc1OC` [ナトリウム塩]: the solubility in water entry (ナトリウム塩) is recorded as “わずかしか溶解しない”.
